Patent US9403832B2, “Pyrazolo[1,5-a]pyrimidine-based compounds, compositions comprising them, and methods of their use” (Lexicon Pharmaceuticals, Inc., priority 2012, dated 2016)

Legend:
AAK1 [1] = biological target: T1, AAK1 (Homo sapiens, UniProt Q2M2I8); test: P81 filter plate assay; assay type: biochemical; conditions: full-length human AAK1, Mu2 substrate, 33P-ATP
T1 construct: NP_055726.2
Outline: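 Full-length human AAK1 (0.2 nM, 2×) was pre-incubated 10 min at RT with compounds (top concentration 96 μM in the dilution plate), then reacted 1 h at RT with full-length human Mu2 (0.2 μM, 2×), cold ATP (2 μM, 2×) and ³³P-ATP. Reactions were stopped with phosphoric acid and captured on P81 filters for scintillation counting.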

AAK1 [2] = biological target: T1, AAK1; test: HEK281 cell-based assay (CBA); conditions: HEK293F cells transfected with full length human AAK1 and AP2M1; phospho-mu2 Western blot; 3 hours incubation
Experimental: HEK293F cells were cultured in media containing DMEM (Gibco, cat. #11965), 10% FBS (SAFC Biosciences, cat. #12103C), 1× GPS (glutamine, penicillin and streptomycin). On day one, cells were plated on a 10 cm dish so that they are ˜80% confluent at time of transfection. Roughly 12 million cells were in a 10 cm dish at time of transfection. On day two, each dish was transfected with 48 ug DNA and 144 ul Lipofectamine 2000 (Invitrogen, cat. #11668-019). The DNA was comprised of a mixture (per 10 cm dish) containing 3 ug AAK1/HA/pIRES (full length human, NCBI accession no. NP_055726.2), 45 μg Flag/AP2MI/pcDNA (full length human), and 1.5 ml OPTI-MEM. The Lipofectamine 2000 is made up of a mixture (per 10 cm dish) containing 144 μl Lipofectamine 2000 and 1.5 ml OPTI-MEM. Each mixture was transferred to individual 15 ml tubes and incubated at RT for 5 minutes, and then the two mixes were combined and incubated at RT for 20 minutes.
Growth media was then aspirated from each 10 cm plate and replaced with 10 ml of DMEM+10% FBS (no GPS). Finally, 3 ml DNA/Lipofectamine mix was added to each 10 cm dish and mix gently followed by incubate of plate overnight at 37° C. and 5% CO2.
On day three, compounds were diluted in 100% DMSO at 1000× final concentration, followed by 3-fold serial dilutions for a total of 5 concentrations tested. Four compounds were tested per 10 cm dish. One ul of each compound dilution was then pipetted into a deep-well, 96-well plate, followed by addition of 500 μl DMEM+0.5% FBS into each well for a 2× final concentration of each compound. Cells were resuspended in a 10 cm dish by simple pipetting (HEK293 cells come off the plate that easy at this point) and then transferred to a 50 ml conical tube and pelleted by centrifugation at 1000 rpm for 5 min. Cell pellets were then resuspended in 2.75 ml DMEM+0.5% FBS per 10 cm dish and 100 μl of cell suspension transferred into each well of 96-well TC plate. Finally, 100 μl of 2× compound diluted in DMEM+0.5% FBS was then added into wells containing cell suspension for a 1× final concentration. Plates were then incubated at 37° C. and 5% CO2 for 3 hours followed by transferring of cell suspensions from each well into 12-tube PCR strips. The PCR strips were spun in a tip rack at 1000 rpm for 5 minutes to pellet cells and media was then removed by pipetting without disturbing the cell pellet.
To prepare for Western Blot analysis, cell pellets were resuspend in 40 ul 1× LDS-PAGE sample buffer (Invitrogen, cat.# NP0008)+2× Halt phophatase and protease inhibitor cocktail (Thermo Scientific, cat. #1861284), followed by sonicating each with microtip sonicator set at 5 for 8-10 seconds. Five ul of 10× NuPage Sample Reducing Agent (with 50 mM DTT) was to each sample followed by heat denaturing at 70 C for 10 min on PCR machine. A total of 10 μl per sample was loaded into each lane of a 4-20% Tris-Glycine Criterion 26-well gel (Biorad, cat. #345-0034) for the phospho-mu2 blot and 10 μl per lane in a 4-12% Bis-Tris (+MES buffer) NuPAGE 26-well gel (Invitrogen, cat.# WG1403BX10) for the mu2 blot. For controls, 2 ng of phospho-mu2 or 20 ng mu2/Flag proteins were loaded in the last well of each gel. After SDS-PAGE, samples on each gel were transferred to PVDF membrane using an iBlot and membranes were blocked for one hour in TBST+5% milk, followed by wash 3× for 5-10 min with TBST. Criterion gels were probed with rabbit anti-phospho-mu2 (1:5000; a rabbit polyclonal antibody produced by New England Peptide and affinity purified at Lexicon) in TBST+5% BSA, whereas, NuPAGE gels were probed with mouse anti-Flag (1:500; Sigma, cat.# F1804) in TBST+5% milk, and these primary antibodies were incubated overnight at 4° C. on a rocker.

T1 sequence (Q2M2I8 1-863 isoform Q2M2I8-2): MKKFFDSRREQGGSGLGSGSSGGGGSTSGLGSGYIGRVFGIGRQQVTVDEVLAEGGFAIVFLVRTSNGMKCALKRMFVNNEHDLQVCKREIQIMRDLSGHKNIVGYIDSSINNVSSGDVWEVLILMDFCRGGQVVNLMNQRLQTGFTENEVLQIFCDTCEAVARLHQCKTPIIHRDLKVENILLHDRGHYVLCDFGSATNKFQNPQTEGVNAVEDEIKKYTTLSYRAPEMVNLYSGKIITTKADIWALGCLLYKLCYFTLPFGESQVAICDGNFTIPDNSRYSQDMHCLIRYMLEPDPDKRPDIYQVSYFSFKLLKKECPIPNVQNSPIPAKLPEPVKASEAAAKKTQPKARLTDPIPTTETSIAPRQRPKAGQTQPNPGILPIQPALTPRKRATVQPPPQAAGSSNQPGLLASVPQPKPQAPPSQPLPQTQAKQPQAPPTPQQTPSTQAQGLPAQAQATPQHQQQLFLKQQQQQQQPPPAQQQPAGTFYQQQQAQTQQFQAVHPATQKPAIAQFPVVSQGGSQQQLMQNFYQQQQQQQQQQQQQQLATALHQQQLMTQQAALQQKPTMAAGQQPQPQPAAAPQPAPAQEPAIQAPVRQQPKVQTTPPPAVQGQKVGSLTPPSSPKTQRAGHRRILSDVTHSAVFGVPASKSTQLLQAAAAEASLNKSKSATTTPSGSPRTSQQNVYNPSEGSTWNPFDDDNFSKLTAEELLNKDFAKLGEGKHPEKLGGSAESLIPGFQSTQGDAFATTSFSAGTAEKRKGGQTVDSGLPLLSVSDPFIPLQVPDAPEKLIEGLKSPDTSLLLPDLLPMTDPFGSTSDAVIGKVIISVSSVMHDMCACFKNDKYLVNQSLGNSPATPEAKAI

IC50 (AAK1 [1]) [nM] | IC50 (AAK1 [2]) [nM] | Structure (SMILES)
≤ 10 | ≤ 1000 | COCC(C)(C)OC(=O)N1CCN(c2ccn3ncc(-c4cccnc4OC)c3n2)CC1 [1-methoxy-2-methylpropan-2-yl 4-(3-(2-methoxypyridin-3-yl)pyrazolo[1,5-a]pyrimidin-5-yl)piperazine-1-carboxylate]
≤ 10 | ≤ 10 | COCC(C)OC(=O)N1CCN(c2ccn3ncc(-c4cccnc4OC)c3n2)CC1 (stereo not shown) [1-methoxypropan-2-yl 4-(3-(2-methoxypyridin-3-yl)pyrazolo[1,5-a]pyrimidin-5-yl)piperazine-1-carboxylate]
≤ 10 | ≤ 10 | COc1ncccc1-c1cnn2ccc(N3CCN(C(=O)OCC(F)(F)F)CC3)nc12 [2,2,2-trifluoroethyl 4-(3-(2-methoxypyridin-3-yl)pyrazolo[1,5-a]pyrimidin-5-yl)piperazine-1-carboxylate]
≤ 10 | ≤ 100 | COCCOC(=O)N1CCN(c2ccn3ncc(-c4ccc(C)nc4OC)c3n2)CC1 [2-methoxyethyl 4-(3-(2-methoxy-6-methylpyridin-3-yl)pyrazolo[1,5-a]pyrimidin-5-yl)piperazine-1-carboxylate]
≤ 10 | ≤ 100 | [2H]C1([2H])N(C(=O)OCCOC)C([2H])([2H])C([2H])([2H])N(c2ccn3ncc(-c4cccnc4OC)c3n2)C1([2H])[2H] [2-methoxyethyl 4-(3-(2-methoxypyridin-3-yl)pyrazolo[1,5-a]pyrimidin-5-yl)-d8-piperazine-1-carboxylate]
≤ 10 | ≤ 10 | COCCOC(=O)N1CCN(c2ccn3ncc(-c4cc(F)ccc4OC)c3n2)CC1 [2-methoxyethyl 4-(3-(5-fluoro-2-methoxyphenyl)pyrazolo[1,5-a]pyrimidin-5-yl)piperazine-1-carboxylate]
≤ 10 | ≤ 100 | COCCOC(=O)N1CCN(c2ccn3ncc(-c4cc(F)cnc4OC)c3n2)CC1 [2-methoxyethyl 4-(3-(5-fluoro-2-methoxypyridin-3-yl)pyrazolo[1,5-a]pyrimidin-5-yl)piperazine-1-carboxylate]
≤ 10 | ≤ 10 | COc1ncccc1-c1cnn2ccc(N3CCN(C(=O)C4(N)CCCC4)CC3)nc12 [(1-aminocyclopentyl)(4-(3-(2-methoxypyridin-3-yl)pyrazolo[1,5-a]pyrimidin-5-yl)piperazin-1-yl)methanone]
≤ 10 | ≤ 100 | COc1ncccc1-c1cnn2ccc(N3CCN(C(=O)[C@@H](N)[C@@H](C)OC)CC3)nc12 [(2S,3R)-2-amino-3-methoxy-1-(4-(3-(2-methoxypyridin-3-yl)pyrazolo[1,5-a]pyrimidin-5-yl)piperazin-1-yl)butan-1-one]
≤ 10 | ≤ 100 | COc1ncccc1-c1cnn2ccc(N3CCN(C(=O)C4(N)CCOC4)CC3)nc12 (stereo not shown) [(3-aminotetrahydrofuran-3-yl)(4-(3-(2-methoxypyridin-3-yl)pyrazolo[1,5-a]pyrimidin-5-yl)piperazin-1-yl)methanone]
≤ 10 | ≤ 100 | COc1ncccc1-c1cnn2ccc(N3CCN(C(=O)N4CCCCC4)CC3)nc12 [(4-(3-(2-methoxypyridin-3-yl)pyrazolo[1,5-a]pyrimidin-5-yl)piperazin-1-yl)(piperidin-1-yl)methanone]
≤ 10 | ≤ 1000 | COC[C@@H](C)OC(=O)N1CCN(c2ccn3ncc(-c4cccnc4OC)c3n2)CC1 [(R)-1-methoxypropan-2-yl 4-(3-(2-methoxypyridin-3-yl)pyrazolo[1,5-a]pyrimidin-5-yl)piperazine-1-carboxylate]
≤ 10 | ≤ 100 | COc1nc(C)ccc1-c1cnn2ccc(N3CCN(C(=O)O[C@@H]4CCOC4)CC3)nc12 [(R)-tetrahydrofuran-3-yl 4-(3-(2-methoxy-6-methylpyridin-3-yl)pyrazolo[1,5-a]pyrimidin-5-yl)piperazine-1-carboxylate]
≤ 10 | ≤ 10 | COc1ncccc1-c1cnn2ccc(N3CCN(C(=O)O[C@@H]4CCOC4)CC3)nc12 [(R)-tetrahydrofuran-3-yl 4-(3-(2-methoxypyridin-3-yl)pyrazolo[1,5-a]pyrimidin-5-yl)piperazine-1-carboxylate]
≤ 10 | ≤ 10 | COc1ccc(F)cc1-c1cnn2ccc(N3CCN(C(=O)O[C@@H]4CCOC4)CC3)nc12 [(R)-tetrahydrofuran-3-yl 4-(3-(5-fluoro-2-methoxyphenyl)pyrazolo[1,5-a]pyrimidin-5-yl)piperazine-1-carboxylate]
≤ 10 | ≤ 10 | COc1ncc(F)cc1-c1cnn2ccc(N3CCN(C(=O)O[C@@H]4CCOC4)CC3)nc12 [(R)-tetrahydrofuran-3-yl 4-(3-(5-fluoro-2-methoxypyridin-3-yl)pyrazolo[1,5-a]pyrimidin-5-yl)piperazine-1-carboxylate]
≤ 10 | ≤ 100 | CN[C@H](C(=O)N1CCN(c2ccn3ncc(-c4cccnc4OC)c3n2)CC1)C(C)(C)C [(S)-1-(4-(3-(2-methoxypyridin-3-yl)pyrazolo[1,5-a]pyrimidin-5-yl)piperazin-1-yl)-3,3-dimethyl-2-(methylamino)butan-1-one]
≤ 10 | ≤ 10 | CN[C@@H](CC(C)C)C(=O)N1CCN(c2ccn3ncc(-c4cccnc4OC)c3n2)CC1 [(S)-1-(4-(3-(2-methoxypyridin-3-yl)pyrazolo[1,5-a]pyrimidin-5-yl)piperazin-1-yl)-4-methyl-2-(methylamino)pentan-1-one]
≤ 10 | ≤ 10 | COC[C@H](C)OC(=O)N1CCN(c2ccn3ncc(-c4cccnc4OC)c3n2)CC1 [(S)-1-methoxypropan-2-yl 4-(3-(2-methoxypyridin-3-yl)pyrazolo[1,5-a]pyrimidin-5-yl)piperazine-1-carboxylate]
≤ 10 | ≤ 10 | CC(C)[C@H](N)C(=O)N1CCN(c2ccn3ncc(-c4cc(F)ccc4F)c3n2)CC1 [(S)-2-amino-1-(4-(3-(2,5-difluorophenyl)pyrazolo[1,5-a]pyrimidin-5-yl)piperazin-1-yl)-3-methylbutan-1-one]
≤ 10 | ≤ 100 | Cc1ccc(-c2cnn3ccc(N4CCN(C(=O)[C@@H](N)C(C)C)CC4)nc23)c(F)c1 [(S)-2-amino-1-(4-(3-(2-fluoro-4-methylphenyl)pyrazolo[1,5-a]pyrimidin-5-yl)piperazin-1-yl)-3-methylbutan-1-one]
≤ 10 | ≤ 10 | CC(C)[C@H](N)C(=O)N1CCN(c2ccn3ncc(-c4ccccc4F)c3n2)CC1 [(S)-2-amino-1-(4-(3-(2-fluorophenyl)pyrazolo[1,5-a]pyrimidin-5-yl)piperazin-1-yl)-3-methylbutan-1-one]
 | ≤ 10 | CC(C)COC(=O)N(C)CCNc1ccn2ncc(-c3ccc(C(N)=O)cc3)c2n1 [isobutyl (2-((3-(4-carbamoylphenyl)pyrazolo[1,5-a]pyrimidin-5-yl)amino)ethyl)(methyl)carbamate]
≤ 10 |  | COc1ncccc1-c1cnn2ccc(OCCN(C)C(=O)OC(C)(C)C)nc12 [tert-butyl (2-((3-(2-methoxypyridin-3-yl)pyrazolo[1,5-a]pyrimidin-5-yl)oxy)ethyl)(methyl)carbamate]
